Consider 28 compounds from ChEMBL document CHEMBL1641454, “6-Benzylamino 4-oxo-1,4-dihydro-1,8-naphthyridines and 4-oxo-1,4-dihydroquinolines as HIV integrase inhibitors” (Bioorg Med Chem Lett, 2011).

The test system of data set [1] is Human immunodeficiency virus 1. Description: Antiviral activity against VSV-G protein pseudotyped HIV1 luciferase reporter virus in mixture of human HeLa/JC53 cells assessed as luminescence after 48 hrs in presence of 40% human serum. The format is functional, organism-based. As to conditions: Human immunodeficiency virus 1, Hela-JC53, 48 h.
The subject of data set [2] is Human immunodeficiency virus 1. Description: Antiviral activity against VSV-G protein pseudotyped HIV1 luciferase reporter virus in mixture of human HeLa/JC53 cells assessed as luminescence after 48 hrs. The class given is functional, organism-based. The settings on record: Human immunodeficiency virus 1, Hela-JC53, 48 h.
The nature of data set [3]: Metabolic stability in human liver microsome assessed as compound remaining after 30 mins. The format is ADME. The settings on record: liver microsomes, read-out: Stability. For orientation: Liver microsomes are vesicles of endoplasmic reticulum, rich in cytochrome P450 enzymes.
Data set [4] can be described thus: AUC in rat at 5 mg/kg, po. The class given is ADME, organism-based. Also noted: dose 5 mg/kg, route oral. The settings on record: plasma.
Data set [5] is described as follows: Volume of distribution in rat at 2 mg/kg, iv. Also noted: dose 2 mg/kg, route intravenous. The settings on record: in vivo. The format is ADME, organism-based.
Data set [6] in a line: Cmax in rat at 5 mg/kg, po. The format is ADME, organism-based. Also noted: dose 5 mg/kg, route oral. As to conditions: in vivo.
A short description of data set [7]: Plasma clearance in rat at 2 mg/kg, iv. The class given is ADME, organism-based. Also noted: dose 2 mg/kg, route intravenous.
Data set [8] in a line: Half life in rat at 5 mg/kg, po. Also noted: dose 5 mg/kg, route oral. The class given is ADME, organism-based. As to conditions: in vivo.
The nature of data set [9]: Oral bioavailability in rat at 5 mg/kg. The class given is ADME, organism-based. As to conditions: in vivo.
A short description of data set [10]: Plasma clearance in Beagle dog at 1 mg/kg, iv. The class given is ADME, organism-based, Canis lupus familiaris. Also noted: dose 1 mg/kg, route intravenous.
A short description of data set [11]: Volume of distribution in Beagle dog at 1 mg/kg, iv. The class given is ADME, organism-based, Canis lupus familiaris. As to conditions: in vivo. Also noted: dose 1 mg/kg, route intravenous.
A short description of data set [12]: Plasma clearance in rhesus monkey at 1 mg/kg, iv. The format is ADME, organism-based, Macaca mulatta. Also noted: dose 1 mg/kg, route intravenous.
A short description of data set [13]: Volume of distribution in rhesus monkey at 1 mg/kg, iv. The class given is ADME, organism-based, Macaca mulatta. Also noted: dose 1 mg/kg, route intravenous. As to conditions: in vivo.
A short description of data set [14]: Half life in rhesus monkey at 1 mg/kg, iv. The class given is ADME, organism-based, Macaca mulatta. Also noted: dose 1 mg/kg, route intravenous. The settings on record: in vivo.
Data set [15] can be described thus: Half life in Beagle dog at 1 mg/kg, iv. The format is ADME, organism-based, Canis lupus familiaris. Also noted: dose 1 mg/kg, route intravenous. The settings on record: in vivo.

Where only a bound is given, the exact number is not on record here.

Regarding `CC[C@@H](CO)n1cc(C(=O)O)c(=O)c2cc(Cc3cccc(Cl)c3F)c(OC)nc21`, the EC50 in [1] was 307 nM; in [2], 40 nM.
As to `COc1nc2c(cc1Cc1cccc(Cl)c1F)c(=O)c(C(=O)O)cn2[C@H](CO)C(C)C`, the EC50 in [1] was 136 nM; in data set [2], 11 nM. For the same compound, the remaining at 0.5 h in [3] was 100%.
Turning to `CC(C)[C@@H](CO)n1cc(C(=O)O)c(=O)c2cc(Cc3cccc(Cl)c3F)ncc21`, the results for the EC50 in data set [1] and in data set [2] were 425 nM and 54 nM, respectively. Moreover, the remaining at 0.5 h in data set [3] is 100%.
For `CC(C)[C@@H](CO)n1cc(C(=O)O)c(=O)c2cc(Cc3cccc(Cl)c3F)cnc21` the same measures were 1940 nM, 65 nM and 99%.
Consider `CC(C)[C@@H](CO)n1cc(C(=O)O)c(=O)c2nc(Cc3cccc(Cl)c3F)ccc21`, for which, in data set [2], the concentration giving a half-maximal response (EC50) is over 2500 nM.
`COc1nc(Cc2cccc(Cl)c2F)cc2c(=O)c(C(=O)O)cn([C@H](CO)C(C)C)c12`: the EC50 in [1] stood at 1770 nM; in [2], 291 nM.
In the case of `COc1nc2c(cc1Cc1cccc(Cl)c1F)c(=O)c(C(=O)O)cn2[C@@H](C)CO`, the values for the half-maximal effective concentration (EC50) in [1] and in [2] were 1050 nM and 177 nM, respectively.
The corresponding values for `CCC[C@@H](CO)n1cc(C(=O)O)c(=O)c2cc(Cc3cccc(Cl)c3F)c(OC)nc21` are 1020 nM and 180 nM.
In the case of `CCCC[C@@H](CO)n1cc(C(=O)O)c(=O)c2cc(Cc3cccc(Cl)c3F)c(OC)nc21`, the figures for the EC50 in data set [1] and in [2] were 245 nM and 20 nM, respectively.
On to `COc1nc2c(cc1Cc1cccc(Cl)c1F)c(=O)c(C(=O)O)cn2[C@H](CO)C(C)(C)C`, for which, in data set [4], the AUC came to 8500 ng·h/mL. Also, in [5], the Vd stood at 2.31 L/kg. Further, the EC50 amounted to 61 nM in data set [1] and 8.6 nM in data set [2]. In addition, the concentration in data set [6] peaked (Cmax) at 1230 ng/mL. This compound also had a clearance in data set [7] of 2.67 mL/min/kg. In [8], this compound had a half-life of 174 min. The compound further gave a bioavailability in data set [9] of 31%. Besides, the remaining at 0.5 h in [3] was determined as 82%.
Take `COc1nc2c(cc1Cc1cccc(Cl)c1F)c(=O)c(C(=O)O)cn2[C@H](CO)CC(C)C`: the EC50 in data set [1] was found to be 129 nM; in data set [2] it was 5.9 nM. The remaining at 0.5 h in data set [3] stood at 92%.
For `CC(C)(C)[C@@H](CO)n1cc(C(=O)O)c(=O)c2cc(Cc3cccc(Cl)c3F)c(O)nc21`, the figures for the EC50 in [1] and in [2] were 199 nM and 2.7 nM, respectively. Moreover, the remaining at 0.5 h in [3] was 87%.
Turning to `CCOc1nc2c(cc1Cc1cccc(Cl)c1F)c(=O)c(C(=O)O)cn2[C@H](CO)C(C)(C)C`, the concentration for a half-maximal effect (EC50) in data set [1] worked out at 19 nM; in data set [2] it was 1.4 nM. In addition, the remaining at 0.5 h in data set [3] stood at 84%.
Regarding `CC(C)Oc1nc2c(cc1Cc1cccc(Cl)c1F)c(=O)c(C(=O)O)cn2[C@H](CO)C(C)(C)C`, the EC50 in [1] was 195 nM; in data set [2], 16 nM.
Turning to `CC(C)(C)[C@@H](CO)n1cc(C(=O)O)c(=O)c2cc(Cc3cccc(Cl)c3F)c(OCCO)nc21`, the figures for the EC50 in [1] and in [2] were 2.4 nM and 0.9 nM, respectively. Moreover, in data set [3], the remaining at 0.5 h was 45%.
In [4], `CC(C)(C)[C@@H](CO)n1cc(C(=O)O)c(=O)c2cc(Cc3cccc(Cl)c3F)c(N3CCOCC3)nc21` returned an area under the curve (AUC) of 2700 ng·h/mL. The Vd in [5] was found to be 4.02 L/kg; in data set [11], 1.03 L/kg; in [13], 3.06 L/kg. Further, the results for the EC50 in data set [1] and in data set [2] were 39 nM and 9.9 nM, respectively. In addition, the clearance is 10 mL/min/kg in data set [10], 7 mL/min/kg in [7] and 19.7 mL/min/kg in [12]. In data set [6], this compound showed a maximum concentration (Cmax) of 414 ng/mL. Further, the half-life in [8] is 156 min; in [14] it was 486 min; in [15], 156 min. Further, the bioavailability in data set [9] came out at 26%. Besides, the remaining at 0.5 h in data set [3] was found to be 97%.
For the compound `COc1nc2c(cc1Nc1cccc(Cl)c1F)c(=O)c(C(=O)O)cn2[C@H](CO)C(C)C`, the EC50 in data set [2] was over 2500 nM.
With `COc1nc2c(cc1Nc1ccc(Cl)c(F)c1)c(=O)c(C(=O)O)cn2[C@H](CO)C(C)C`, the EC50 in data set [2] was over 2500 nM.
Same read-out and setting: for `COc1nc2c(cc1Nc1ccc(F)cc1)c(=O)c(C(=O)O)cn2[C@H](CO)C(C)C` the value was over 2500 nM.
For `COc1nc2c(cc1NCc1cccc(Cl)c1F)c(=O)c(C(=O)O)cn2[C@H](CO)C(C)C`, the EC50 in [1] came out at 2680 nM; in data set [2], 490 nM.
Turning to `COc1nc2c(cc1NCc1ccc(F)cc1)c(=O)c(C(=O)O)cn2[C@H](CO)C(C)C`, the results for the EC50 in [1] and in [2] were 421 nM and 98 nM, respectively. In data set [3], the remaining at 0.5 h came out at 87%.
On to `COc1nc2c(cc1NCc1ccc(F)cc1)c(=O)c(C(=O)O)cn2[C@H](CO)C(C)(C)C`, for which the results for the EC50 in data set [1] and in [2] were 385 nM and 150 nM, respectively.
Regarding `COc1nc2c(cc1NCc1cccc(F)c1)c(=O)c(C(=O)O)cn2[C@H](CO)C(C)C`, the 50% effective concentration (EC50) in data set [1] was 1590 nM; in data set [2] it was 1460 nM.
Consider `COc1nc2c(cc1NCc1ccccc1F)c(=O)c(C(=O)O)cn2[C@H](CO)C(C)C`, for which the results for the EC50 in data set [1] and in data set [2] were 283 nM and 81 nM, respectively. Also, the remaining at 0.5 h in data set [3] is 97%.
Consider `COc1nc2c(cc1NCc1ccc(F)cc1F)c(=O)c(C(=O)O)cn2[C@H](CO)C(C)C`, for which the results for the EC50 in data set [1] and in data set [2] were 139 nM and 4.6 nM, respectively. Besides, the remaining at 0.5 h in data set [3] worked out at 87%.
For `COc1nc2c(cc1NCc1c(F)cc(F)cc1F)c(=O)c(C(=O)O)cn2[C@H](CO)C(C)C` the same measures were 52 nM, 1.4 nM and 82%.
The compound `COc1nc2c(cc1NCc1c(F)cc(F)cc1F)c(=O)c(C(=O)O)cn2[C@H](CO)C(C)(C)C` displayed an AUC in data set [4] of 2890 ng·h/mL. In addition, the Vd in data set [5] stood at 4.18 L/kg; in data set [11], 1.93 L/kg; in data set [13], 3.93 L/kg. The EC50 in [1] stood at 42 nM; in data set [2], 7.6 nM. For the same compound, the clearance in data set [10] is 15.5 mL/min/kg; in data set [7] it was 5.83 mL/min/kg; in [12] it was 44.2 mL/min/kg. In data set [6], this compound had a Cmax of 666 ng/mL. Also, the half-life is 222 min in [8], 132 min in data set [14] and 120 min in [15]. This compound registered a bioavailability in [9] of 23%. Besides, in data set [3], the remaining at 0.5 h stood at 75%.
`COc1cc2c(cc1Cc1cccc(Cl)c1F)c(=O)c(C(=O)O)cn2[C@H](CO)C(C)C` [ELVITEGRAVIR] had an AUC in data set [4] of 5630 ng·h/mL. Also, the Vd was 2.74 L/kg in data set [5], 2.38 L/kg in data set [11] and 1.99 L/kg in [13]. In addition, the concentration giving a half-maximal response (EC50) in data set [1] worked out at 36 nM; in [2] it was 0.7 nM. In addition, the clearance in [10] is 10 mL/min/kg; in data set [7], 3.83 mL/min/kg; in data set [12], 7.17 mL/min/kg. For the same compound, the peak level in data set [6] (Cmax) was 1140 ng/mL. Further, the half-life in [8] is 174 min; in data set [14], 192 min; in [15], 216 min. This compound also yielded a bioavailability in data set [9] of 26%. In data set [3], the remaining at 0.5 h was 38%.

By EC50 is commonly meant the concentration that produces a half-maximal response. For orientation: AUC means the area under the concentration-time curve, a measure of exposure. Usually Vd stands for a proportionality between amount in the body and measured concentration, not a real space. As usually defined, the Cmax is the maximum level reached in the sampled fluid or tissue. As a reminder, the clearance is the volume of plasma or blood freed of the substance per unit of time. A word on the half-life: it is how long it takes for the measured level to halve. As a reminder, the bioavailability is the share of a dose that reaches the circulation, judged against a reference dose that is usually intravenous.
